# Assay results: paper PMC6749236, “Synthesis of Novel 2-(Het)arylpyrrolidine Derivatives and Evaluation of Their Anticancer and Anti-Biofilm Activity” (Molecules, 2019)
# Values joined by “and” are separate entries in the source; they are usually repeats but may differ in a detail not shown here. Equal values may be shown once. Read-outs that look alike come from different tables or passages of the source. Marks after values point to notes of the source that are not given here.
# Legend:
# P388 murine leukemia = assay: In vivo anti-tumor activity, i.p. implanted leukemia; design: species or system BDF1 hybrid male mice; settings: for ILS / MST ± SD / antitumor (anti-leukemic) activity, in words: days 1, 5, 9; for ILS / MST ± SD: P388; for Survival: day 60; for Survivors/Total: survivors on day 60; for antitumor (anti-leukemic) activity, in words: P388, dose range 18–83 mg/kg/day i.p.
# Method: Animals. In vivo experiments were performed using the BDF1 hybrid male mice of 22–24 g weight. The experimental animals were caged in a standard vivarium in 12 h light conditions with free access to food and water. All manipulations with the animals were performed in accordance with the solutions of the Commission on Bioethics of the Institute of Problems of Chemical Physics, Russian Academy of Sciences (IPCP RAS).
# Anti-tumor activity. The tumors were transplanted intraperitoneally (i.p.) in accordance with a standard procedure inoculum: 10^6 tumor cells in isotonic solution of NaCl, V = 0.2 cm^3 (leukemia P388). Original compounds were injected intraperitoneally as aqueous solution. Doses from 18 to 83 mg/kg/day and the mode of administration on days 1, 5, and 9 after transplantation were used. In each experiment, a single group of tumor-bearing animals not injected with the compounds served as the control group. Each group consisted of six mice. The animals were observed daily for survival for a minimum of 60 days. The efficacy of the therapy against leukemia (defined as increase in lifespan—ILS) was assessed as the percentage of the median survival time (MST) of the treated group (t) to that of the control group (c): ILS(%) = (MSTt/MSTc) × 100.
# Statistics. The experiments were carried out in triplicate. The data are presented in the form X ± SD (mean ± standard deviation). The significance of the differences between the groups was assessed using Student’s t-test. Values of p < 0.05 were considered statistically significant. The data were processed statistically using GraphPad Prism.
# M-Hela = assay: Cytotoxicity assay (Cytell Cell Imaging, DAPI/propidium iodide), cancer cell line; format: cell-based; settings: Homo sapiens, read-out: IC50 Cancer Cell Line M-Hela
# [1] = Water solubility (selection for parenteral administration); format: physicochemical
# Chang liver cell line = assay: Cytotoxicity assay (Cytell Cell Imaging), normal cell line; format: cell-based; settings: Homo sapiens, read-out: IC50 Normal Cell Line Chang Liver
# [2] = tested on: E. coli MG1655 (pSoxS-lux); assay: Prooxidant activity, bacterial lux-biosensor; format: cell-based, Escherichia coli
# Text: (§1) E. coli MG1655 (pRecA-lux) was used for the evaluation of the genotoxicity of the synthesized compounds. The biosensor with the PrecA promotor fixes the presence of the factors causing damage of DNA in a cell. The biosensor E. coli MG1655 (pSoxS-lux) was used for the evaluation of prooxidant activity. The biosensor with the PsoxS promoter fixes the production of superoxide anion and NO [75]. Bioluminescent strains were obtained by the transformation of E. coli MG1655 by hybrid plasmids pRecA-lux, pSoxS-lux. The gene cassette luxCDABE Photorhabdus luminescens under the control PrecA promoters was used in this biosensor. This plasmid was created on the basis of pBR322 and contained a selective marker of ampicillin resistance (Amp gene). The strains were kindly furnished by Manukhov I.V., Federal State Unitary Enterprise “GosNIIGenetika”).
# (§2) The bacterial strains Acinetobacter calcoaceticus VKPM B-10353, E. coli MG1655 (pRecA-lux), and E. coli MG1655 (pSoxS-lux) were cultivated in Luria–Bertani (LB) medium under constant shaking to early exponential phase at 37 °C. Cells were used immediately for stress induction tests. One hundred micrograms of ampicillin per milliliter were added into LB medium at cultivation of E. coli MG1655 (pRecA-lux) and E. coli MG1655 (pSoxS-lux). Strain V. aquamarinus DSM 26054 was grown in LB medium supplemented with 3% NaCl.
# (§3) Biosensors assay procedure. The detailed protocol of toxicity testing by means of a bacterial lux-biosensors is described in the article.
# (§4) Calculation. The criterion of toxic influence was bioluminescence intensity change of the test object in the researched sample in comparison with the control sample.
# (§5) The induction factor (I) was defined as the relation of luminescence intensity of a lux-biosensor suspension containing tested sample (Lc) to the luminescence intensity of a lux-biosensor control suspension (Lk): I = Lc/Lk.
# (§6) Difference reliability of bioluminescence in experiment from control value was estimated by t-criterion with the help of Excel software. The conclusions about sample toxicity were made at p < 0.05.
# [3] = tested on: Acinetobacter calcoaceticus VKPM B-10353; assay: Biofilm formation, crystal violet assay; format: cell-based; settings: A. calcoaceticus VKPM B-10353, control = 100%
# Method: (§7) Bacterial strains and cultivation conditions. For the detection of biofilms, formation strains Vibrio aquamarinus DSM 26054 and Acinetobacter calcoaceticus VKPM B-10353 were used. These strains form biofilms, making them useful for studying biofilms.
# as §2
# (§8) The test compounds were dissolved in DMSO to the concentration of 1 × 10^−2 M. Then, they were diluted with ethanol. The control solutions were analogous dilutions of DMSO in ethanol. The tested compounds were also compared with the standard antibiotic azithromycin. Azithromycin was dissolved in DMSO to the concentration of 5 × 10^−3 M and then diluted with deionized water.
# (§9) Test system for evaluation of biofilms production. To quantify the formation of biofilms, the crystal violet assay was used, with some modifications. The necessary concentrations of the test compounds were prepared as described above.
# (§10) V. aquamarinus DSM 26054 was cultivated for 24 h in LB medium supplemented with 3% NaCl in the Innova 40R shaker incubator (New Brunswick Scientific, USA) at 25 °C and 200 rpm. A. calcoaceticus VKPM B-10353 was cultivated for 24 h in LB medium in the Innova 40R shaker incubator (New Brunswick Scientific, Enfield, CT, USA) at 30 °C and 200 rpm. Then, the suspensions of the daily culture of V. aquamarinus DSM 26054 and A. calcoaceticus VKPM B-10353 were diluted with LB medium supplemented with 3% NaCl to the density of 1 × 10^8 cells/mL.
# (§11) The resulting suspension (180 μL) was added to the wells of a polystyrene microplate (Nuova Aptaca, Canelli, Italy). To some of the wells, 20 μL of the test substances at various concentrations were added. Since solvents used could also influence the biofilm formation, 20 μL of the appropriate solvent was added to the other part of the wells at same dilutions (control). Six replicates were done for each treatment and control. The microplate was covered with a lid and wrapped with Parafilm (Bemis Company, Inc., Oshkosh, WI, USA).
# (§12) After incubation at 25 °C for 72 h, biofilms were stained. The contents in the wells were removed by means of a dispenser. The wells were then carefully washed three times with 250 μL of sterile saline. The microplates were shaken to remove all non-adherent bacteria. Biofilms were fixed with 200 μL of 96% ethanol for 15 min. After the microplates had dried in air, 200 μL of 0.5% crystal violet was introduced into the wells. After 10 min, the dye was removed. The excess dye was removed by washing with water three times. After the microplates were air-dried, the dye in the wells bound to biofilms was dissolved with 200 μL of 96% ethanol. The extraction level (absorption) of crystal violet by ethanol was measured after 60 minutes at a wavelength of 570 nm using a FLUOstar Omega microplate reader (BMG Labtech, Offenburg, Germany) in optical density units (OD570). The intensity of biofilm formation directly corresponds to the intensity of staining of the contents of the wells with the dye. Biofilm formation was determined by the difference between the mean OD readings obtained in the presence of compounds and the control.
# (§13) Each experiment was performed in triplicate. The values were expressed as mean + SD. Student’s t-test was used to compare these values. Differences were considered statistically significant at p < 0.05.
# [4] = tested on: Vibrio aquamarinus DSM 26054; assay: Biofilm formation, crystal violet assay; format: cell-based; settings: V. aquamarinus DSM 26054, control = 100%
# Method: as §7, §2, §8, §9, §10, §11, §12, §13
# [5] = tested on: Escherichia coli MG1655 (pRecA-lux); assay: Genotoxicity, bacterial lux-biosensor; format: cell-based
# Text: as §1, §2, §3, §4, §5
# If at significant differences from control induction factor values were ≤2, the detected genotoxic effect was evaluated as “weak”, if they were in the range from 2 to 10 as “medium”, and above 10 as “strong”. All the experiments were carried out three times independently.
# as §6
smiles,measurement,setting,value
"O=C(Nc1ccccc1)N1CCCC1c1cc2c(cc1O)OCO2 (centres unmarked) [5b, 2-(6-Hydroxybenzo[d][1,3]dioxol-5-yl)-N-phenylpyrrolidine-1-carboxamide]",ILS,P388 murine leukemia; 18 mg/kg/day i.p.,177%
same,MST ± SD,P388 murine leukemia; 18 mg/kg/day i.p.,27.7 ± 10.3 days
same,Survival,P388 murine leukemia; 18 mg/kg/day,33%
same,ILS,P388 murine leukemia; 26 mg/kg/day i.p.,165%
same,MST ± SD,P388 murine leukemia; 26 mg/kg/day i.p.,26.5 ± 10.6 days
same,Survival,P388 murine leukemia; 26 mg/kg/day,33%
same,ILS,P388 murine leukemia; 40 mg/kg/day i.p.,160%
same,MST ± SD,P388 murine leukemia; 40 mg/kg/day i.p.,26.0 ± 10.8 days
same,Survival,P388 murine leukemia; 40 mg/kg/day,33%
same,ILS,P388 murine leukemia; 55 mg/kg/day i.p.,80%
same,MST ± SD,P388 murine leukemia; 55 mg/kg/day i.p.,18.0 ± 8.4 days
same,Survival,P388 murine leukemia; 55 mg/kg/day,17%
same,ILS,P388 murine leukemia; 83 mg/kg/day i.p.,0%
same,MST ± SD,P388 murine leukemia; 83 mg/kg/day i.p.,9.7 ± 0.2 days
same,Survival,P388 murine leukemia; 83 mg/kg/day,0%
same,Survivors/Total,P388 murine leukemia; 83 mg/kg/day,0/6
same,"antitumor (anti-leukemic) activity, in words",P388 murine leukemia,pronounced anti-leukemic activity
same,IC50,M-Hela; M-HeLa,> 100 µM
same,"solubility in water, in words",[1],water-soluble
same,IC50,Chang liver cell line,> 100 µM
"Cc1cc(O)c(C2CCCN2C(=O)NCCN(C)C)c(=O)o1.O=C(O)C(F)(F)F (centres unmarked) [7h, 2-(2-(4-Hydroxy-6-methyl-2-oxo-2H-pyran-3-yl)pyrrolidine-1-carboxamido)-N,N-dimethylethan-1-aminium 2,2,2-trifluoroacetate]",ILS,P388 murine leukemia; 18 mg/kg/day i.p.,0%
same,MST ± SD,P388 murine leukemia; 18 mg/kg/day i.p.,11.0 ± 0.6 days
same,Survival,P388 murine leukemia; 18 mg/kg/day,0%
same,Survivors/Total,P388 murine leukemia; 18 mg/kg/day,0/6
same,ILS,P388 murine leukemia; 26 mg/kg/day i.p.,0%
same,MST ± SD,P388 murine leukemia; 26 mg/kg/day i.p.,10.3 ± 0.2 days
same,Survival,P388 murine leukemia; 26 mg/kg/day,0%
same,Survivors/Total,P388 murine leukemia; 26 mg/kg/day,0/6
same,ILS,P388 murine leukemia; 40 mg/kg/day i.p.,0%
same,MST ± SD,P388 murine leukemia; 40 mg/kg/day i.p.,10.2 ± 0.2 days
same,Survival,P388 murine leukemia; 40 mg/kg/day,0%
same,Survivors/Total,P388 murine leukemia; 40 mg/kg/day,0/6
same,ILS,P388 murine leukemia; 55 mg/kg/day i.p.,0%
same,MST ± SD,P388 murine leukemia; 55 mg/kg/day i.p.,10.7 ± 0.2 days
same,Survival,P388 murine leukemia; 55 mg/kg/day,0%
same,Survivors/Total,P388 murine leukemia; 55 mg/kg/day,0/6
same,ILS,P388 murine leukemia; 83 mg/kg/day i.p.,0%
same,MST ± SD,P388 murine leukemia; 83 mg/kg/day i.p.,10.3 ± 0.2 days
same,Survival,P388 murine leukemia; 83 mg/kg/day,0%
same,Survivors/Total,P388 murine leukemia; 83 mg/kg/day,0/6
same,"antitumor (anti-leukemic) activity, in words",P388 murine leukemia,did not show antitumor properties
same,IC50,M-Hela; M-HeLa,> 100 µM
same,"solubility in water, in words",[1],water-soluble
same,IC50,Chang liver cell line,> 100 µM
"O=C(Nc1ccc(F)cc1)N1CCCC1c1ccc(Nc2c([N+](=O)[O-])c(Cl)cc3c2no[n+]3[O-])cc1O (centres unmarked) [6e, 6-Chloro-4-((4-(1-((4-fluorophenyl)carbamoyl)pyrrolidin-2-yl)-3-hydroxyphenyl)amino)-5-nitrobenzo[c][1,2,5]oxadiazole 1-oxide]",Prooxidant activity (induction factor),[2]; 10^−5 M,0.84 ± 0.04
same,Prooxidant activity (induction factor),[2]; 10^−6 M,1.34 ± 0.10
same,Prooxidant activity (induction factor),[2]; 10^−7 M,1.85 ± 0.15
same,"prooxidant response, in words",[2]; 10^−7 M,weak response
same,Prooxidant activity (induction factor),[2]; 10^−8 M,1.25 ± 0.28
same,Prooxidant activity (induction factor),[2]; 10^−9 M,0.93 ± 0.03
same,Biofilm Formation,[3]; 1 × 10^−5 M,86.50%
same,Biofilm Formation,[3]; 1 × 10^−6 M,53.27 * %
same,Biofilm Formation,[3]; 1 × 10^−7 M,55.40 * %
same,Biofilm Formation,[3]; 1 × 10^−8 M,47.66 * %
same,Biofilm Formation,[3]; 1 × 10^−9 M,87.92 * %
same,Biofilm Formation,[4]; 1 × 10^−5 M,39.57 * %
same,Biofilm Formation,[4]; 1 × 10^−6 M,26.02 * %
same,Biofilm Formation,[4]; 1 × 10^−7 M,11.01% and 11.01 * %
same,Biofilm Formation,[4]; 1 × 10^−8 M,17.96 * %
same,Biofilm Formation,[4]; 1 × 10^−9 M,67.29%
same,IC50,"M-Hela; M-Hela, tested at 1–100 µM, three independent experiments",26 ± 1.8 µM
same,"detected genotoxic effect, class",[5]; concentration range of 10^−9–10^−5 M,medium (in the range from 2 to 10)
same,"Genotoxicity (induction factor, I)","[5]; with metabolic activation (+S9), 10^−5 M",1.24 ± 0.02
same,"Genotoxicity (induction factor, I)","[5]; with metabolic activation (+S9), 10^−6 M",1.47 ± 0.04
same,"Genotoxicity (induction factor, I)","[5]; with metabolic activation (+S9), 10^−7 M",1.45 ± 0.02
same,"Genotoxicity (induction factor, I)","[5]; with metabolic activation (+S9), 10^−8 M",1.35 ± 0.04
same,"Genotoxicity (induction factor, I)","[5]; with metabolic activation (+S9), 10^−9 M",1.43 ± 0.01
same,"Genotoxicity (induction factor, I)","[5]; without metabolic activation (-S9), 10^−5 M",2.00 ± 0.02
same,"Genotoxicity (induction factor, I)","[5]; without metabolic activation (-S9), 10^−6 M",2.39 ± 0.02
same,"Genotoxicity (induction factor, I)","[5]; without metabolic activation (-S9), 10^−7 M",2.46 ± 0.02
same,"Genotoxicity (induction factor, I)","[5]; without metabolic activation (-S9), 10^−8 M",2.74 ± 0.04
same,"Genotoxicity (induction factor, I)","[5]; without metabolic activation (-S9), 10^−9 M",2.56 ± 0.10
same,melting point,,175 to 177 °C (dec.)
same,IC50,"Chang liver cell line; tested at 1–100 µM, three independent experiments",48 ± 3 µM
